Results published in patent US7750017B2, “Heterocycles” (Bayer Schering Pharma Aktiengesellschaft, priority 2004, dated 2010).
Where a name gives a salt, the structure may show the parent alone.

Columns and labels:
[1] = tested on: A431 cells [human epidermoid carcinoma, overexpressing HER1 (EGFR, ErbB1)]; assay: In vitro tumor cell proliferation assay (Cell Titer-Glo luminescent cell viability), A431 cells; type: cell-based; conditions: A-431, 72 h, 72 hours of drug exposure, Cell Titer-Glo readout, read-out: IC50, anti-proliferative activity in A431 cells
Source text: (§1) The utility of the compounds of the present invention can be illustrated, for example, by their activity in vitro in the in vitro tumor cell proliferation assay described below. The link between activity in tumor cell proliferation assays in vitro and anti-tumor activity in the clinical setting has been very well established in the art.
(§2) The following assay is one of the methods by which compound activity relating to treatment of the disorders identified herein can be determined.
(§3) The tumor cell proliferation assay used to test the compounds of the present invention involves a readout called Cell Titer-Glow® Luminescent Cell Viability Assay developed by Promega® (Cunningham, B A “A Growing Issue: Cell Proliferation Assays, Modern kits ease quantification of cell growth” The Scientist 2001, 15(13), 26, and Crouch, S P et al., “The use of ATP bioluminescence as a measure of cell proliferation and cytotoxicity” Journal of Immunological Methods 1993, 160, 81-88), that measures inhibition of cell proliferation. Generation of a luminescent signal corresponds to the amount of ATP present, which is directly proportional to the number of metabolically active (proliferating) cells.
(§4) A431 cells [human epidermoid carcinoma, ATCC # […], overexpressing HER1 (EGFR, ErbB1)] and BT474 [human breast carcinoma, ATCC # CRL-1555, overexpressing HER2 (ErbB2)] were plated at a density of 2.5×10^3 cells/well in 96 well black-clear bottom tissue culture plates in RPMI media with 10% Fetal Bovine Serum and incubated at 37° C. Twenty-four hours later, test compounds are added at a final concentration range from as high 100 μm to as low 64 pM depend on the activities of the tested compounds in serial dilutions at a final DMSO concentration of 0.1%. Cells were incubated for 72 hours at 37° C. in complete growth media after addition of the test compound. After 72 hours of drug exposure, the plates were equilibrated to room temperature for approximately 30 min. Then, using a Promega Cell Titer Glo Luminescent® assay kit, lysis buffer containing 100 microliters of the enzyme luciferase and its substrate, luciferin mixture, was added to each well. The plates were mixed for 2 min on orbital shaker to ensure cell lysis and incubated for 10 min at room temperature to stabilize luminescence signal. The samples were read on VICTOR 2 using Luminescence protocol, and analyzed with Analyze5 software to generate IC50 values.

[2] = tested on: BT474 [human breast carcinoma, overexpressing HER2 (ErbB2)]; assay: In vitro tumor cell proliferation assay (Cell Titer-Glo luminescent cell viability), BT474 cells; type: cell-based; conditions: BT-474, 72 h, 72 hours of drug exposure, Cell Titer-Glo readout, read-out: IC50, anti-proliferative activity in BT474 cells
Source text: as §1, §2, §3, §4

Row | SMILES | IC50 [1] | IC50 [2]
1 | O=C(O)/C=C/c1ccc2c(c1)sc1ncnc(Nc3ccc(OCc4cccc(F)c4)c(Cl)c3)c12 [Example 48, (2E)-3-[4-({3-chloro-4-[(3-fluorobenzyl)oxy]phenyl}amino)[1]benzothieno[2,3-d]pyrimidin-7-yl]acrylic acid] | ≤ 50 µM | ≤ 5 µM
2 | O=C(O)Cc1ccc2c(c1)sc1ncnc(Nc3ccc(OCc4ccccn4)c(Cl)c3)c12 [Example 94, (4-{[3-chloro-4-(pyridin-2-ylmethoxy)phenyl]amino}[1]benzothieno[2,3-d]pyrimidin-7-yl)acetic acid] | ≤ 50 µM | ≤ 5 µM
3 | CCN1CCN(C(=O)/C=C/c2ccc3c(c2)sc2ncnc(Nc4ccc(OCc5cccc(F)c5)c(Cl)c4)c23)CC1 [Example 49, N-{3-chloro-4-[(3-fluorobenzyl)oxy]phenyl}-7-[(1E)-3-(4-ethylpiperazin-1-yl)-3-oxoprop-1-en-1-yl][1]benzothieno[2,3-d]pyrimidin-4-amine] | ≤ 5 µM | ≤ 5 µM
4 | Clc1cc(Nc2ncnc3sc4cc(N5CCOCC5)ccc4c23)ccc1OCc1ccccn1 [Example 76, N-[3-chloro-4-(pyridin-2-ylmethoxy)phenyl]-7-morpholin-4-yl[1]benzothieno[2,3-d]pyrimidin-4-amine trifluoroacetate] | ≤ 50 µM | ≤ 0.5 µM
5 | C=Cc1ccc2c(c1)sc1ncnc(Nc3ccc4c(cnn4Cc4cccc(F)c4)c3)c12 [Example 114, N-[1-(3-fluorobenzyl)-1H-indazol-5-yl]-7-vinyl[1]benzothieno[2,3-d] pyrimidin-4-amine] | ≤ 50 µM | ≤ 0.5 µM
6 | COCCN1CCN(C(=O)Cc2ccc3c(c2)sc2ncnc(Nc4ccc(OCc5ccccn5)c(Cl)c4)c23)CC1 [Example 104, N-[3-chloro-4-(pyridin-2-ylmethoxy)phenyl]-7-{2-[4-(2-methoxyethyl)piperazin-1-yl]-2-oxoethyl}[1]benzothieno [2,3-d]pyrimidin-4-amine] | ≤ 50 µM | ≤ 0.5 µM
7 | Fc1cccc(COc2ccc(Nc3ncnc4sc5cc(CCBr)ccc5c34)cc2Cl)c1 [Example 3, 7-(2-bromoethyl)-N-{3-chloro-4-[(3-fluorobenzyl)oxy]phenyl}[1]benzothieno[2,3-d]pyrimidin-4-amine] | ≤ 5 µM | ≤ 0.5 µM
8 | Clc1cc(Nc2ncnc3sc4cc(CCN5CCNCC5)ccc4c23)ccc1OCc1ccccn1 [Example 89, N-[3-chloro-4-(pyridin-2-ylmethoxy)phenyl]-7-(2-piperazin-1-ylethyl)[1]benzothieno[2,3-d] pyrimidin-4-amine trifluoroacetate] | ≤ 50 µM | ≤ 0.5 µM
9 | CN(C)CCNC(=O)Cc1ccc2c(c1)sc1ncnc(Nc3ccc(OCc4cscn4)c(Cl)c3)c12 [Example 142, 2-(4-{[3-chloro-4-(1,3-thiazol-4-ylmethoxy)phenyl]amino}[1]benzothieno[2,3-d]pyrimidin-7-yl)-N-[2-(dimethylamino)ethyl] acetamide] | ≤ 50 µM | ≤ 0.5 µM
10 | O=C(Cc1ccc2c(c1)sc1ncnc(Nc3ccc(OCc4ccccn4)c(Cl)c3)c12)NCCN1CCOCC1 [Example 97, 2-(4-{[3-chloro-4-(pyridin-2-ylmethoxy)phenyl]amino}[1]benzothieno[2,3-d]pyrimidin-7-yl)-N-(2-morpholin-4-ylethyl) acetamide] | ≤ 50 µM | ≤ 0.5 µM
11 | O=C(Cc1ccc2c(c1)sc1ncnc(Nc3ccc(OCc4ccccn4)c(Cl)c3)c12)NCCO [Example 106, 2(4-{[3-chloro-4-(pyridin-2-ylmethoxy)phenyl]amino}[1]benzothieno[2,3-d]pyrimidin-7-yl)-N-(2-hydroxyethyl)acetamide] | ≤ 50 µM | ≤ 5 µM
12 | CN1CCN(C(=O)Cc2ccc3c(c2)sc2ncnc(Nc4ccc(OCc5ccccn5)c(Cl)c4)c23)CC1 [Example 96, N-[3-chloro-4-(pyridin-2-ylmethoxy)phenyl]-7-[2-(4-methylpiperazin-1-yl)-2-oxoethyl][1]benzothieno[2,3-d] pyrimidin-4-amine] | ≤ 50 µM | ≤ 0.5 µM
13 | CN(C)[C@H]1CCN(C(=O)C(O)C(O)c2ccc3c(c2)sc2ncnc(Nc4ccc(OCc5cccc(F)c5)c(Cl)c4)c23)C1 (stereo partly drawn) [Example 59, 1-[4-({3-chloro-4-[(3-fluorobenzyl)oxy]phenyl}amino) [1]benzothieno[2,3-d]pyrimidin-7-yl]-3-[(3S)-3-(dimethylamino)pyrrolidin-1-yl]-3-oxopropane-1,2-diol] | ≤ 50 µM | ≤ 5 µM
14 | OC[C@@H](O)c1ccc2c(c1)sc1ncnc(Nc3ccc(OCc4cccc(F)c4)c(Cl)c3)c12 [Example 26, (1S)-1-[4-({3-chloro-4-[(3-fluorobenzyl)oxy]phenyl}amino)[1]benzothieno[2,3-d]pyrimidin-7-yl]ethane-1,2-diol] | ≤ 5 µM | ≤ 0.5 µM
15 | O=C(Cc1ccc2c(c1)sc1ncnc(Nc3ccc(OCc4cscn4)c(Cl)c3)c12)NCCO [Example 141, 2-(4-{[3-chloro-4-(1,3-thiazol-4-ylmethoxy)phenyl]amino}[1]benzothieno[2,3-d]pyrimidin-7-yl)-N-(2-hydroxyethyl)acetamide] | ≤ 50 µM | ≤ 5 µM
16 | Fc1cccc(Cn2ncc3cc(Nc4ncnc5sc6cc(CCN7CCOCC7)ccc6c45)ccc32)c1 [Example 129, N-[1-(3-fluorobenzyl)-1H-indazol-5-yl]-7-(2-morpholin-4-ylethyl) [1]benzothieno[2,3-d]pyrimidin-4-amine] | ≤ 5 µM | ≤ 0.5 µM
17 | O=C(Cc1ccc2c(c1)sc1ncnc(Nc3ccc(OCc4ccccn4)c(Cl)c3)c12)N1CCC[C@@H]1CO [Example 108, {1-[(4-{[3-chloro-4-(pyridin-2-ylmethoxy)phenyl]amino}[1]benzothieno[2,3-d]pyrimidin-7-yl)acetyl]pyrrolidin-2-yl}methanol] | ≤ 5 µM | ≤ 5 µM
18 | OC[C@@H](O)[C@H](O)c1ccc2c(c1)sc1ncnc(Nc3ccc(OCc4cccc(F)c4)c(Cl)c3)c12 [Example 64, (1R,2R)-1-[4-({3-chloro-4-[(3-fluorobenzyl)oxy]phenyl}amino)[1]benzothieno[2,3-d]pyrimidin-7-yl]propane-1,2,3-triol] | ≤ 5 µM | ≤ 0.5 µM
19 | O=C(Cc1ccc2c(c1)sc1ncnc(Nc3ccc(OCc4ccccn4)c(Cl)c3)c12)N1CCOCC1 [Example 95, N-[3-chloro-4-(pyridin-2-ylmethoxy)phenyl]-7-(2-morpholin-4-yl-2-oxoethyl)[1]benzothieno[2,3-d]pyrimidin-4-amine] | ≤ 50 µM | ≤ 5 µM
20 | NS(=O)(=O)OCCc1ccc2c(c1)sc1ncnc(Nc3ccc(OCc4ccccn4)c(Cl)c3)c12 [Example 109, 2-(4-{[3-chloro-4-(pyridin-2-ylmethoxy)phenyl]amino}[1]benzothieno[2,3-d]pyrimidin-7-yl)ethyl sulfamate] | ≤ 5 µM | ≤ 0.5 µM
21 | CN(C)[C@@H]1CCN(C(=O)Cc2ccc3c(c2)sc2ncnc(Nc4ccc(OCc5cscn5)c(Cl)c4)c23)C1 [Example 136, N-[3-chloro-4-(1,3-thiazol-4-ylmethoxy)phenyl]-7-{2-[(3R)-3-(dimethylamino)pyrrolidin-1-yl]-2-oxoethyl}[1]benzothieno[2,3-d] pyrimidin-4-amine] | ≤ 5 µM | ≤ 0.5 µM
22 | OCC(O)c1ccc2c(c1)sc1ncnc(Nc3ccc4c(cnn4Cc4ccccn4)c3)c12 (stereo not drawn) [Example 131, 1-(4-{[1-(pyridin-2-ylmethyl)-1H-indazol-5-yl]amino}[1]benzothieno [2,3-d]pyrimidin-7-yl)ethane-1,2-diol] | ≤ 50 µM | ≤ 0.5 µM
23 | O=C(Cc1ccc2c(c1)sc1ncnc(Nc3ccc(OCc4ccccn4)c(Cl)c3)c12)NCCOCCO [Example 98, 2-(4-{[3-chloro-4-(pyridin-2-ylmethoxy)phenyl]amino}[1]benzothieno[2,3-d]pyrimidin-7-yl)-N-[2-(2-hydroxyethoxy)ethyl] acetamide] | ≤ 50 µM | ≤ 5 µM
24 | CN(C)[C@H]1CCN(C(=O)CCc2ccc3c(c2)sc2ncnc(Nc4ccc(OCc5cccc(F)c5)c(Cl)c4)c23)C1 [Example 68, N-{3-chloro-4-[(3-fluorobenzyl)oxy]phenyl}-7-{3-[(3S)-3-(dimethylamino)pyrrolidin-1-yl]-3-oxopropyl} [1]benzothieno[2,3-d]pyrimidin-4-amine] | ≤ 5 µM | ≤ 5 µM
